Values of other authors in patent US8134031B2, “Extraction process for aldehyde product separation and catalyst recovery” (Dow Global Technologies LLC, priority 2007, dated 2012).
Counter-ions that a name gives are not always drawn. Like-named read-outs stand apart in the source and are kept apart here. Blank lines part the entries; values can stand above or below the compound they belong to.

[1] = 25° C., experimental value (Yaw's Handbook)
[2] = 22° C., experimental value (Yaw's Handbook)
[3] = 25° C., estimated value (Yaw's Handbook)

Compound: C=CCCCCCC [1-Octene]
H2O solubility (25° C.): 4.10 ppm | Solubility in water [1]: 4.10 ppmw

Compound: C=C(C)C(C)=O [Methyl isopropenyl ketone]
Solubility in water [1]: 47000 ppmw

Compound: CCCCCO [1-Pentanol]
Solubility in water [1]: 22000 ppmw

Compound: CCCCCCC [Heptane]
H2O solubility (25° C.): 2.24 ppmw | Solubility in water [1]: 2.24 ppmw

Compound: O=C1CCCCC1 [Cyclohexanone]
Solubility in water [1]: 93190 ppmw

Compound: CCOC(C)=O [Ethyl acetate]
Solubility in water [1]: 73720 ppmw

Compound: CC(C)OC(C)C [Diisopropyl ether]
Solubility in water [1]: 11250 ppmw

Compound: CC(C)CCO [3-Methyl-1-butanol]
Solubility in water [1]: 27000 ppmw

Compound: CC(=O)C(C)C [Methyl isopropyl ketone]
Solubility in water [1]: 60800 ppmw

Compound: CCCC(=O)OC [Methyl butyrate]
Solubility in water [1]: 15000 ppmw

Compound: CCCOC(C)=O [Propyl acetate]
Solubility in water [3]: 16787 ppmw

Compound: CCCC(C)O (stereo not drawn) [2-Pentanol]
Solubility in water [1]: 45000 ppmw

Compound: CCC(=O)CC [Diethyl ketone]
Solubility in water [1]: 34000 ppmw

Compound: CCCCC(C)=O [2-Hexanone]
Solubility in water [1]: 16400 ppmw

Compound: CCC(C)CO (stereo not drawn) [2-Methyl-1-butanol]
Solubility in water [1]: 30000 ppmw

Compound: CCCCCCC=O [1-Heptanal]
Solubility in water [1]: 1516 ppmw

Compound: CC(C)C(C)O (stereo not drawn) [3-Methyl-2-butanol]
Solubility in water [1]: 56000 ppmw

Compound: CCCOC=O [Propyl formate]
Solubility in water [2]: 22000 ppmw

Compound: CC(=O)OC(C)C [Isopropyl acetate]
Solubility in water [1]: 29000 ppmw

The next lines start with the values.

Solubility in water [1]: 52000 ppmw
Compound: CCC(O)CC [3-Pentanol]

Solubility in water [2]: 6168 ppmw
Compound: CCCC(=O)OCC [Ethyl butyrate]

Solubility in water [3]: 25882 ppmw
Compound: CCC(O)C(C)C (stereo not drawn) [2-Methyl-3-pentanol]

Solubility in water [1]: 22000 ppmw
Compound: CCOC(=O)CC [Ethyl propanoate]

Solubility in water [3]: 22865 ppmw
Compound: CCC(=O)C(C)C [Ethyl isopropyl ketone]

H2O solubility (25° C.): 13.3 ppmw | Solubility in water [1]: 13.3 ppmw
Compound: CCCCCC [Hexane]

Solubility in water [1]: 14700 ppmw
Compound: CCCC(=O)CC [3-Hexanone]

Solubility in water [1]: 11700 ppmw
Compound: CCCCC=O [Pentanal]

Solubility in water [3]: 27392 ppmw
Compound: CC(C)CC=O [3-Methylbutanal]

Solubility in water [3]: 28212 ppmw
Compound: CCC(C)C=O (stereo not drawn) [2-Methylbutanal]

Solubility in water [1]: 55360 ppmw
Compound: CCCC(C)=O [Methyl propyl ketone]
